From patent publication US7772252B2, “Heterocyclic substituted carbonyl derivatives and their use as dopamine D3 receptor ligands” (Aventis Pharmaceuticals Inc., priority 2001, dated 2010)

These compounds were tested against T1, cloned human alpha-1A adrenergic receptors (α1a) (Homo sapiens, UniProt P35348) (assay: [3H]Prazosin binding to cloned human alpha-1A adrenergic receptors expressed in CHO cells). Conditions: read-out: halpha1Ki (nM) h = human.
T1 construct: expressed in transfected cells; membranes
T1 sequence (P35348 1-466): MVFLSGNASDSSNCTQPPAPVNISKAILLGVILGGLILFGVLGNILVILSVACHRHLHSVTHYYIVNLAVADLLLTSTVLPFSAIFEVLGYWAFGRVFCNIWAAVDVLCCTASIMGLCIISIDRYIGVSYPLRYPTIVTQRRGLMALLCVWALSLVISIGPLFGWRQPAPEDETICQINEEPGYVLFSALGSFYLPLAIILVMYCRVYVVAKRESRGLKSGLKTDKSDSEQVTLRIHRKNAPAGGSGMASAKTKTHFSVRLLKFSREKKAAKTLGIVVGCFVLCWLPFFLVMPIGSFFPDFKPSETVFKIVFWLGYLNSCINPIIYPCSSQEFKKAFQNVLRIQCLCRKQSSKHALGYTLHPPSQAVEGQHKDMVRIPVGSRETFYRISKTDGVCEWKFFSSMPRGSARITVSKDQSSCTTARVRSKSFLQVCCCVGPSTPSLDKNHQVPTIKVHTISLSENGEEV
Text: ^3H]Prazosin Binding to Cloned Human Alpha-1A Adrenergic Receptors (α1a) Expressed in Chinese Hamster Ovary Cells (CHO)
• Purpose: This in vitro assay is designed as a screen to identify compounds displaying a affinity for the human α1a adrenoceptor subtype expressed in the membrane fragments of CHO cells. The assay measures the ability of the test compounds to displace [^3H] prazosin from α1a sites. • The identification of multiple vascular α1-addrenoceptors (α1a, α1b, α1d) in vitro has provided impetus to define the role(s) of these subtypes in cardiovascular regulation in vivo (Vargas and Gorman, 1995). […] Prazosin is a potent antagonist of the human α1a-adrenoceptor subtype, which has been cloned and is expressed in the membrane fragments of CHO cells. • hα1a receptor: The cloning of the human α1a cDNA was accomplished first by screening a human prostate cDNA library (Clontech), from which a portion of the coding region was obtained. This DNA fragment was then used to screen a human leukocyte genomic library (Clontech), and the rest of the coding sequence was obtained. Later these two fragments were spliced together. The entire coding sequence was then fully sequenced including matching PCR sequence with original genomic coding sequence, thus ensuring splice sites were joined correctly (Schwinn et al., 1995). Once sequenced, the gene was subcloned into the expression vector pcDNA3 (Invitrogen). Plasmid DNA was then used for transfection into CHO cells and G418 resistant clones were isolated. A clone expressing high levels of the hα1a receptor (as determined by mRNA and receptor binding data) was chosen and pharmacologically characterized. • Culture Media Ingredients for Adherent α1a expressing CHO Culture: • A. HAM's F-12 (Celigro) • B. 10% 0.2 micron filtered Fetal Bovine Serum (FBS)(Celigro) • C. 1% 0.2 micron filtered Penicillin-Streptomycin (Celigro) • D. G418 0.2 micron filtered (Geneticin 400 μg/ml)(Celigro) • Cells are cultured using established methods and procedures in either 150×25 mm culture plates (scale up to 100 plates) or a combination of these plates and 70 roller bottles. One culturing/harvest cycle typically requires 2 weeks and yields between 100-400 mg protein. Plates or bottles are incubated at 37° C.+5% CO2. • Storage: Cells are harvested by mechanical scraping, washed using PBS, collected in 250 ml Corning polypropylene centrifuge tubes, spun down (1500 RPM) and resuspended in dH2O 10% DMSO (final volume per harvest is approximately 50 ml). Protein determination is made using the Biorad DC Assay Kit. Finally, the appropriate volume is aliquoted into a 2 ml Corning Cryovial (10 mg/1-1.5 ml) which is stored at −80° C.
• Assay Requirement: 0.5 cryovials per 96 well plate (assay volume=200 μl/well) • [^3H]-Ligand: [7-methoxy-^3H]-Prazosin: 1.0 nM (NEN, NET-823) • 70-87 Ci/mmol • Materials: Phentolamine mesylate (Research Biochemicals Int. #P-131) • 96 well flat bottom plates (Beckman) • Unifilter GF/B Plate (Packard) • Polyethylenimine (Sigma #P-3134) • TomTec or Packard Filtermate 196 Cell Harvesters • Packard TopCount Scintillation Counter • Buffers: A: 50 mM Tris HCl; 0.1% ascorbate, pH 7.7 (incubation buffer) • B: 50 mM Tris HCl; pH 7.7 (wash buffer) • Procedure: Assay additions are as follows (in the order indicated): • Total Binding=50 μl buffer A+50 μl [^3H]prazosin+100 μl membrane • Nonsp. Bd.=50 μl 10 μM phentolamine+50 μl [^3H]prazosin+100 μl membrane • Test Cpd.=50 μl compound+50 μl [^3H]prazosin+100 μl membrane • Compounds to be evaluated are weighed out to yield a 10 mM stock solution in DMSO in a 24 well polystyrene plate. This is diluted to a 0.5 mM stock in dH2O, Serial dilutions in Buffer A are made from which 50 μl additions to the plate are made in duplicate in order to achieve the final concentrations desired. Typically, one 96 well plate is used to evaluate 11 compounds at 4 concentrations (10^−6-10^−9 M) in duplicate. Total binding and nonspecific binding are determined in quadruplicate. […]
For O=C(CCCN1CCN(c2csc3cc(F)ccc23)CC1)NC1CCCCC1 [compound 826861], the Ki was 9.55 nM.
CCN(C(=O)CCCN1CCN(c2csc3cc(F)ccc23)CC1)C1CCCCC1 [compound 826849] gave a Ki of 35.2 nM.
For O=C(CCCN1CCN(c2csc3cc(F)ccc23)CC1)NC1CCCC1 (racemic) [compound 826860], the Ki was 0.516 nM.
With CN(C(=O)CCCN1CCN(c2csc3cc(C(F)(F)F)ccc23)CC1)C1CCCCC1 [compound 826808] the Ki was 126 nM.
Compound CC1CCCN(C(=O)CCCN2CCN(c3csc4cc(F)ccc34)CC2)C1 (stereo not drawn) [compound 826855] has a Ki of 0.889 nM.
Work on CC1CCCC(NC(=O)CCCN2CCN(c3csc4cc(F)ccc34)CC2)C1 (stereo not drawn) [compound 826847] yielded a Ki of 0.513 nM.
Compound CC1CCCN1C(=O)CCCN1CCN(c2csc3cc(C(F)(F)F)ccc23)CC1 (stereo not drawn) [compound 826822] has a Ki of 32.2 nM.
O=C(CCCN1CCN(c2csc3cc(F)ccc23)CC1)N(CCO)C1CCCCC1 [compound 826850] showed a Ki of 28.4 nM.
In the case of CCOC(=O)C1CCN(C(=O)CCCN2CCN(c3csc4cc(C(F)(F)F)ccc34)CC2)CC1 [compound 826811], the Ki is reported as 223 nM.
Compound CC1CCCC(NC(=O)CCCN2CCN(c3csc4cc(C(F)(F)F)ccc34)CC2)C1 (racemic) [compound 826807] has a Ki of 166000 nM.
CCOC(=O)[C@H]1CC[C@H](NC(=O)CCCN2CCN(c3csc4cc(F)ccc34)CC2)CC1 [compound 826845] was tested, and the Ki was 5.44 nM.
With O=C(CCCN1CCN(c2csc3cc(C(F)(F)F)ccc23)CC1)N(CCO)C1CCCCC1 [compound 826810] the Ki was 200 nM.
O=C(CCCN1CCN(c2csc3cc(F)ccc23)CC1)N1CCC(O)CC1 [compound 826852] showed a Ki of 6.16 nM.
Compound CC1CC(C)CN(C(=O)CCCN2CCN(c3csc4cc(F)ccc34)CC2)C1 (stereo not drawn) [compound 826858] has a Ki of 9.42 nM.
With CN(C(=O)CCCN1CCN(c2csc3cc(F)ccc23)CC1)C1CCCCC1 [compound 826848] the Ki was 12.3 nM.
For O=C(CCCN1CCN(c2csc3cc(F)ccc23)CC1)N1CCCC1 [compound 826859], the Ki was 4 nM.
O=C(CCCN1CCN(c2csc3cc(F)ccc23)CC1)N1CCC(N2CCCC2)CC1 [compound 826856] showed a Ki of 15.3 nM.
Compound O=C(CCCN1CCN(c2csc3cc(C(F)(F)F)ccc23)CC1)N1CCC(O)CC1 [compound 826812] has a Ki of 658 nM.
O=C(CCCN1CCN(c2csc3cc(C(F)(F)F)ccc23)CC1)N1CCC(N2CCCC2)CC1 [compound 826816] was tested, and the Ki was 249 nM.
With CC1CCCN1C(=O)CCCN1CCN(c2csc3cc(F)ccc23)CC1 (stereo not drawn) [compound 826862] the Ki was 0.637 nM.
For CC1CCCN(C(=O)CCCN2CCN(c3csc4cc(C(F)(F)F)ccc34)CC2)C1 (stereo not drawn) [compound 826815], the Ki was 80.5 nM.
In the case of CC1CC(C)CN(C(=O)CCCN2CCN(c3csc4cc(C(F)(F)F)ccc34)CC2)C1 (stereo not drawn) [compound 826818], the Ki is reported as 124 nM.
In the case of O=C(CCCN1CCN(c2csc3cc(C(F)(F)F)ccc23)CC1)NC1CCCCC1 [compound 826821], the Ki is reported as 1280 nM.
CCOC(=O)C1CCN(C(=O)CCCN2CCN(c3csc4cc(F)ccc34)CC2)CC1 [compound 826851] was tested, and the Ki was 18.9 nM.
Work on CC1CCN(C(=O)CCCN2CCN(c3csc4cc(F)ccc34)CC2)CC1 [compound 826854] yielded a Ki of 0.0713 nM.
CC1CCN(C(=O)CCCN2CCN(c3csc4cc(C(F)(F)F)ccc34)CC2)CC1 [compound 826814] gave a Ki of 89.3 nM.
In the case of CC[C@H]1CC[C@H](NC(=O)CCCN2CCN(c3csc4cc(F)ccc34)CC2)CC1 [compound 826846], the Ki is reported as 93.9 nM.
In the case of C[C@H]1CC[C@H](NC(=O)CCCN2CCN(c3csc4cc(F)ccc34)CC2)CC1 [compound 826844], the Ki is reported as 23.4 nM.
Work on CC1CCCCN1C(=O)CCCN1CCN(c2csc3cc(C(F)(F)F)ccc23)CC1 (stereo not drawn) [compound 826813] yielded a Ki of 57 nM.
Compound O=C(CCCN1CCN(c2csc3cc(C(F)(F)F)ccc23)CC1)NC1CCCC1 [compound 826820] has a Ki of 129 nM.
In the case of CN(C)C1CCN(C(=O)CCCN2CCN(c3csc4cc(C(F)(F)F)ccc34)CC2)C1 (stereo not drawn) [compound 826823], the Ki is reported as 148 nM.
Compound O=C(CCCN1CCN(c2csc3cc(C(F)(F)F)ccc23)CC1)N1CCCC1 [compound 826819] has a Ki of 49 nM.
Compound CC1CCCCN1C(=O)CCCN1CCN(c2csc3cc(F)ccc23)CC1 (stereo not drawn) [compound 826853] has a Ki of 0.258 nM.
